Measurements: the NIST ThermoML archive (doi:10.1016/j.jct.2016.06.034)
± gives the expanded uncertainty stated by the source.

Assay: mn = molality of the nth substance listed, in mol/kg
Conditions: for electrical conductivity / speed of sound / mass density: 84.5 kPa, Liquid; for electrical conductivity: Alternating current cell with electrodes; for speed of sound: Frequency=3 MHz, Sing-around technique in a fixed-path interferometer; for mass density: Vibrating tube method; for surface tension liquid-gas: platinum plate method

CCCCCCCCCCn1cc[n+](C)c1.[Br-] [1-decyl-3-methylimidazolium bromide] + O
electrical conductivity (293.15 K, m1 = 0.00228): 0.0203 ± 0.0039 S/m
electrical conductivity (293.15 K, m1 = 0.00309): 0.0273 ± 0.0038 S/m
electrical conductivity (293.15 K, m1 = 0.00382): 0.0335 ± 0.0036 S/m
electrical conductivity (293.15 K, m1 = 0.00535): 0.0458 ± 0.0035 S/m
electrical conductivity (293.15 K, m1 = 0.00813): 0.0678 ± 0.0035 S/m
electrical conductivity (293.15 K, m1 = 0.01113): 0.0909 ± 0.0035 S/m
electrical conductivity (293.15 K, m1 = 0.01397): 0.112 ± 0.0036 S/m
electrical conductivity (293.15 K, m1 = 0.01667): 0.132 ± 0.0036 S/m
electrical conductivity (293.15 K, m1 = 0.01935): 0.152 ± 0.0036 S/m
electrical conductivity (293.15 K, m1 = 0.02193): 0.17 ± 0.0037 S/m
electrical conductivity (293.15 K, m1 = 0.02449): 0.187 ± 0.0037 S/m
electrical conductivity (293.15 K, m1 = 0.02695): 0.204 ± 0.0038 S/m
electrical conductivity (293.15 K, m1 = 0.02918): 0.219 ± 0.0039 S/m
electrical conductivity (293.15 K, m1 = 0.0311): 0.231 ± 0.004 S/m
electrical conductivity (293.15 K, m1 = 0.03299): 0.243 ± 0.0041 S/m
electrical conductivity (293.15 K, m1 = 0.03499): 0.256 ± 0.0041 S/m
electrical conductivity (293.15 K, m1 = 0.03691): 0.269 ± 0.0042 S/m
electrical conductivity (293.15 K, m1 = 0.03912): 0.282 ± 0.0043 S/m
electrical conductivity (293.15 K, m1 = 0.04083): 0.292 ± 0.0043 S/m
electrical conductivity (293.15 K, m1 = 0.0425): 0.3 ± 0.0041 S/m
electrical conductivity (293.15 K, m1 = 0.04369): 0.305 ± 0.004 S/m
electrical conductivity (293.15 K, m1 = 0.04545): 0.311 ± 0.004 S/m
electrical conductivity (293.15 K, m1 = 0.04751): 0.317 ± 0.004 S/m
electrical conductivity (293.15 K, m1 = 0.04952): 0.323 ± 0.0041 S/m
electrical conductivity (293.15 K, m1 = 0.05149): 0.327 ± 0.004 S/m
electrical conductivity (293.15 K, m1 = 0.05344): 0.332 ± 0.0041 S/m
electrical conductivity (293.15 K, m1 = 0.05532): 0.336 ± 0.0042 S/m
electrical conductivity (293.15 K, m1 = 0.058): 0.342 ± 0.0042 S/m
electrical conductivity (293.15 K, m1 = 0.05963): 0.345 ± 0.0044 S/m
speed of sound (293.15 K, m1 = 0.0095): 1484.6 ± 1.2 m/s
speed of sound (293.15 K, m1 = 0.01379): 1485.5 ± 1.2 m/s
speed of sound (293.15 K, m1 = 0.01652): 1486.1 ± 1.2 m/s
speed of sound (293.15 K, m1 = 0.02179): 1487.2 ± 1.2 m/s
speed of sound (293.15 K, m1 = 0.02615): 1488 ± 1.2 m/s
speed of sound (293.15 K, m1 = 0.03106): 1489 ± 1.2 m/s
speed of sound (293.15 K, m1 = 0.03338): 1489.4 ± 1.2 m/s
speed of sound (293.15 K, m1 = 0.03819): 1490.3 ± 1.2 m/s
speed of sound (293.15 K, m1 = 0.0406): 1490.5 ± 1.2 m/s
speed of sound (293.15 K, m1 = 0.04332): 1490.9 ± 1.2 m/s
speed of sound (293.15 K, m1 = 0.04614): 1491.1 ± 1.2 m/s
speed of sound (293.15 K, m1 = 0.05515): 1491.4 ± 1.2 m/s
speed of sound (293.15 K, m1 = 0.06396): 1491.6 ± 1.2 m/s
speed of sound (293.15 K, m1 = 0.07815): 1491.8 ± 1.2 m/s
speed of sound (293.15 K, m1 = 0.122): 1492.4 ± 1.2 m/s
speed of sound (293.15 K, m1 = 0.1726): 1493 ± 1.2 m/s
speed of sound (293.15 K, m1 = 0.2247): 1493.8 ± 1.2 m/s
speed of sound (293.15 K, m1 = 0.2539): 1494.1 ± 1.2 m/s
mass density (293.15 K, m1 = 0.0095): 998.589 ± 0.11 kg/m3
mass density (293.15 K, m1 = 0.01379): 998.766 ± 0.11 kg/m3
mass density (293.15 K, m1 = 0.01652): 998.876 ± 0.11 kg/m3
mass density (293.15 K, m1 = 0.02179): 999.09 ± 0.11 kg/m3
mass density (293.15 K, m1 = 0.02615): 999.268 ± 0.11 kg/m3
mass density (293.15 K, m1 = 0.03106): 999.467 ± 0.11 kg/m3
mass density (293.15 K, m1 = 0.03338): 999.559 ± 0.11 kg/m3
mass density (293.15 K, m1 = 0.03819): 999.755 ± 0.11 kg/m3
mass density (293.15 K, m1 = 0.0406): 999.853 ± 0.11 kg/m3
mass density (293.15 K, m1 = 0.04332): 999.954 ± 0.11 kg/m3
mass density (293.15 K, m1 = 0.04614): 1000.06 ± 0.11 kg/m3
mass density (293.15 K, m1 = 0.05515): 1000.37 ± 0.11 kg/m3
mass density (293.15 K, m1 = 0.06396): 1000.67 ± 0.11 kg/m3
mass density (293.15 K, m1 = 0.07815): 1001.15 ± 0.11 kg/m3
mass density (293.15 K, m1 = 0.122): 1002.6 ± 0.11 kg/m3
mass density (293.15 K, m1 = 0.1726): 1004.24 ± 0.11 kg/m3
mass density (293.15 K, m1 = 0.2247): 1005.89 ± 0.11 kg/m3
mass density (293.15 K, m1 = 0.2539): 1006.79 ± 0.11 kg/m3
surface tension liquid-gas (298.15 K, m1 = 0.00412): 54.68 ± 0.36 mN/m
surface tension liquid-gas (298.15 K, m1 = 0.00741): 50.92 ± 0.5 mN/m
surface tension liquid-gas (298.15 K, m1 = 0.01142): 47.08 ± 0.4 mN/m
surface tension liquid-gas (298.15 K, m1 = 0.01559): 43.86 ± 0.36 mN/m
surface tension liquid-gas (298.15 K, m1 = 0.01865): 42.13 ± 0.34 mN/m
surface tension liquid-gas (298.15 K, m1 = 0.02466): 39.8 ± 0.24 mN/m
surface tension liquid-gas (298.15 K, m1 = 0.02893): 38.51 ± 0.22 mN/m
surface tension liquid-gas (298.15 K, m1 = 0.03351): 37.65 ± 0.21 mN/m
surface tension liquid-gas (298.15 K, m1 = 0.03974): 37.31 ± 0.2 mN/m
surface tension liquid-gas (298.15 K, m1 = 0.04641): 37.49 ± 0.21 mN/m
surface tension liquid-gas (298.15 K, m1 = 0.05292): 38.51 ± 0.21 mN/m
surface tension liquid-gas (298.15 K, m1 = 0.05743): 38.59 ± 0.2 mN/m
surface tension liquid-gas (298.15 K, m1 = 0.06462): 38.74 ± 0.2 mN/m
surface tension liquid-gas (298.15 K, m1 = 0.0747): 38.93 ± 0.2 mN/m
surface tension liquid-gas (298.15 K, m1 = 0.0901): 38.82 ± 0.21 mN/m
surface tension liquid-gas (298.15 K, m1 = 0.1219): 38.81 ± 0.21 mN/m
surface tension liquid-gas (298.15 K, m1 = 0.1645): 38.91 ± 0.21 mN/m
electrical conductivity (298.15 K, m1 = 1e-05): 0.000165 S/m
electrical conductivity (298.15 K, m1 = 3e-05): 0.00031 S/m
electrical conductivity (298.15 K, m1 = 4e-05): 0.000454 S/m
electrical conductivity (298.15 K, m1 = 5e-05): 0.000592 S/m
electrical conductivity (298.15 K, m1 = 7e-05): 0.000739 S/m
electrical conductivity (298.15 K, m1 = 0.0001): 0.00103 S/m
electrical conductivity (298.15 K, m1 = 0.00012): 0.00132 S/m
electrical conductivity (298.15 K, m1 = 0.00018): 0.00193 S/m
electrical conductivity (298.15 K, m1 = 0.00025): 0.00268 ± 0.0045 S/m
electrical conductivity (298.15 K, m1 = 0.0004): 0.00418 ± 0.0045 S/m
electrical conductivity (298.15 K, m1 = 0.0006): 0.00622 ± 0.0044 S/m
electrical conductivity (298.15 K, m1 = 0.00096): 0.00987 ± 0.0044 S/m
electrical conductivity (298.15 K, m1 = 0.00171): 0.0172 ± 0.0044 S/m
electrical conductivity (298.15 K, m1 = 0.00264): 0.0265 ± 0.0043 S/m
electrical conductivity (298.15 K, m1 = 0.00371): 0.0368 ± 0.0042 S/m
electrical conductivity (298.15 K, m1 = 0.00504): 0.0494 ± 0.0043 S/m
electrical conductivity (298.15 K, m1 = 0.00703): 0.0685 ± 0.0041 S/m
electrical conductivity (298.15 K, m1 = 0.00984): 0.0933 ± 0.004 S/m
electrical conductivity (298.15 K, m1 = 0.01267): 0.117 ± 0.004 S/m
electrical conductivity (298.15 K, m1 = 0.01525): 0.139 ± 0.004 S/m
electrical conductivity (298.15 K, m1 = 0.01793): 0.16 ± 0.004 S/m
electrical conductivity (298.15 K, m1 = 0.02048): 0.181 ± 0.0041 S/m
electrical conductivity (298.15 K, m1 = 0.023): 0.201 ± 0.0042 S/m
electrical conductivity (298.15 K, m1 = 0.02535): 0.219 ± 0.0043 S/m
electrical conductivity (298.15 K, m1 = 0.02772): 0.237 ± 0.0044 S/m
electrical conductivity (298.15 K, m1 = 0.02961): 0.251 ± 0.0045 S/m
electrical conductivity (298.15 K, m1 = 0.03171): 0.267 ± 0.0045 S/m
